Where a SMILES comes first, the peptide text is derived from it. Where no end group is shown, it is not given here. The star is where a group is joined. 5FAM = O=C1OC2(c3ccc(O)cc3Oc3cc(O)ccc32)c2ccc(C(=O)*)cc21
Tests used:
[1] = system: monolayer of MDCKII cells; type: cell-based, canine
Source text: The inventors identified cationic transport peptides that are capable of transcellular delivery of cargo across a monolayer of MDCKII cells grown on a porous membranes. One embodiment of the invention is a CL peptide, conjugated to a fluorescent dye 5-FAM (fluorescein), has a Papp value of (1.3±0.2)×10^−5 cm/s, which approaches the permeability rates of the fast-permeating molecules into the brain (Papp ≈10^−5 to 10^−4 cm/s). The CL peptide, conjugated to 5-FAM, enhanced 30-fold the rate of permeation of 5-FAM across the biological barrier. This is especially significant because MDCKII cells are virtually impermeable to 5-FAM (Papp=(4.1±0.6)×10^−7 cm/s) unless it is conjugated to the novel peptide. In addition, the CL peptide was able to deliver 5-FAM without compromising the junctional integrity of the model cell monolayer. Junctional integrity of the monolayer can be measured by transepithelial electrical resistance (TEER), which signifies resistance to the flow of ions across a cell monolayer. If the tight junctions between the cells are compromised, the TEER decreases.
FIG. 3 illustrates the % TEER change in the monolayer of MDCKII cells. Error bars represent SD with n=3 for all except LY, n=6. […] CL and [5-FAM] […] The data indicates the high permeability rates, observed for a transport peptide of the present invention, [5-FAM] […]

[2] = system: monolayer of MDCKII cells; test: Transwell apparent permeability (Papp) across a monolayer of MDCKII cells grown on a porous membrane; type: in vitro ADME, canine
Method: (§1) The transport peptides of the present invention were identified by modifying peptide sequences and testing these peptides in a Transwell assay measuring in vitro transcellular transport. The Transwell assay consists of two chambers separated from each other by a permeable porous membrane. Cells, most commonly canine kidney epithelial MDCK cells or human intestinal epithelial Caco-2 cells, are grown on the membrane and represent a model biological barrier. The drug, or peptide of interest, is added to the input chamber and the concentration in the receiver chamber is measured after a period of time. The rate at which the drug or peptide permeates across the cells (and the porous membrane) is the rate of drug's concentration increase in the receiver chamber after a period of time. The rate can be calculated and expressed in terms of apparent permeability (Papp), which takes into account the input concentration, the rate of concentration increase in the receiver well, solution volume in the receiver well, and the area of the cell monolayer. Substances with low permeability generally have Papp values on the order of 10^−7 cm/s, and substances with high permeabilities generally have Papp values on the order of 10^−5 cm/s or higher. There are several published reports where the CPPs were investigated for their ability to deliver cargo transcellularly using a Transwell assay: Violini et al reported low permeabilities of 3.1×10^−8 cm/s and 7.4×10^−8 cm/s for TC-radiolabeled Tat 48-57 across Caco-2 and MDCK II cells, respectively.
(§2) The apparent permeabilities (Papp) of four compounds were determined across a monolayer of MDCKII cells, grown on a porous membrane. The four compounds were the following and are represented in FIGS. 2-3: 1) a transport peptide of the present invention, CL, attached to 5-Carboxyfluorescein (MW: 376.3) and designated as [5-FAM]CL peptide, 2) 5-Carboxyfluorescein attached to H3R8 ([5-FAM] H3R8 MW: 2,263.5 and the H3R8 peptide is shown in FIG. 4b) 3) 5-Carboxyfluorescein designated as 5-FAM and 4) Lucifer Yellow designated as LY (MW:457.25, Product Number L-453, Life Technologies). The following concentrations of [5-FAM] CL, [5-FAM] H3R8, 5-FAM, and LY compound were applied to the monolayer of MDCKII cells at approximately 0.2 μM, 0.4-0.9 μM, 4 μM, and 100 μM, respectively. The peptides and dyes were resuspended in HEPES- and glucose-supplemented 1×HBSS buffer. The permeability experiments were conducted for 1 hour at 37° C. Error bars represent standard error (SE). CL and H3R8 are conjugated to 5-FAM at the N-termini. H3R8 is based on oligoarginine CPPs that has been reported to deliver cargo intracellularly. LY is used to assess monolayer integrity (Papp≤10̂−6 cm/s verifies monolayer integrity). The permeability of LY is on the order of 10̂−7 cm/s and is thus consistent with literature values for a monolayer with good barrier properties. [5-FAM]

[3] = as above; type: in vitro ADME, canine; settings: MDCK
Method: as §1, §2

KGRLLRLLRRRRRRRR [CL peptide]
% TEER change after the permeability experiment [1]: did not significantly affect the TEER

Lucifer Yellow [LY]
apparent permeability (Papp) ([2]; MDCK): ~10̂−7 cm/s

O=C(O)c1ccc2c(c1)C(=O)OC21c2ccc(O)cc2Oc2cc(O)ccc21 [5-FAM, 5-Carboxyfluorescein]
apparent permeability (Papp) ([2]; monolayer of MDCKII cells on porous membrane, 1 hour at 37° C, HEPES- and glucose-supplemented 1×HBSS): (4.1±0.6)×10^−7 cm/s

HHHRRRRRRRR [H3R8]
ability to deliver 5-FAM across a monolayer of MDCKII cells ([2]; MDCK): not capable to deliver 5-FAM across a monolayer of MDCKII cells

CC(=O)N[C@@H](CCCCNC(=O)c1ccc2c(c1)C(=O)OC21c2ccc(O)cc2Oc2cc(O)ccc21)C(=O)NCC(=O)N[C@@H](CCCNC(=N)N)C(=O)N[C@@H](CC(C)C)C(=O)N[C@@H](CC(C)C)C(=O)N[C@@H](CCCNC(=N)N)C(=O)N[C@@H](CC(C)C)C(=O)N[C@@H](CC(C)C)C(=O)N[C@@H](CCCNC(=N)N)C(=O)N[C@@H](CCCNC(=N)N)C(=O)N[C@@H](CCCNC(=N)N)C(=O)N[C@@H](CCCNC(=N)N)C(=O)N[C@@H](CCCNC(=N)N)C(=O)N[C@@H](CCCNC(=N)N)C(=O)N[C@@H](CCCNC(=N)N)C(=O)N[C@@H](CCCNC(=N)N)C(N)=O [[5-FAM] CL] (Ac-K(5FAM)GRLLRLLRRRRRRRR-NH2; N-terminus and C-terminus assumed)
% TEER change after the permeability experiment [1]: did not result in a significant % TEER decrease
Papp [3]: 13 ×10⁻⁶ cm/s
enhancement of the rate of permeation (Papp) relative to 5-FAM ([2]; MDCK): 30 fold
